One series relates to Landrace pig bladders. Description: In vitro functional model: field-stimulated bladder tissue strips. The settings on record: concentration range of 10^−9 to 10^−5 M, cumulative. How it is done:
In Vitro Functional Model
Compounds were evaluated for functional BK channel opening activity using tissue strips obtained from Landrace pig bladders. Landrace pig bladders were obtained from female Landrace pigs of 9-30 kg. Landrace pigs were euthanized with an intraperitoneal injection of pentobarbital solution, Somlethal®, J.A. Webster Inc., Sterling Mass. The entire bladder was removed and immediately placed into Krebs Ringer bicarbonate solution (composition, mM: NaCl, 120; NaHCO3, 20; dextrose, 11; KCl, 4.7; CaCl2, 2.5; MgSO4, 1.5; KH2PO4, 1.2; K2EDTA, 0.01, equilibrated with 5% CO2/95% O2 pH 7.4 at 37° C.). Propranolol (0.004 mM) was included in all of the assays to block β-adrenoceptors. The trigonal and dome portions were discarded. Strips 3-5 mm wide and 20 mm long were prepared from the remaining tissue cut in a circular fashion. The mucosal layer was removed. One end was fixed to a stationary glass rod and the other to a Grass FT03 transducer at a basal preload of 1.0 gram. Two parallel platinum electrodes were included in the stationary glass rod to provide field stimulation of 0.05 Hz, 0.5 milli-seconds at 20 volts. […] The maximal efficacy of each compound (expressed as % relative to P1075) is reported. […] Agonist potencies were also expressed as an index relative to P1075. The index was calculated by dividing the ED50 for P1075 by the ED50 for the test agonist in a given tissue. […]

Here are results for four molecules from patent US20040122218A1, “Pyrrolopyridine potassium channel openers” (priority 2002, published 2004).

Broadly, the melting point is the temperature, or range, at which the solid turns liquid.

As for `N#Cc1c(N2CCC[C@@H]2CO)[nH]c2cccnc12` [Example 9, (R)-2-(2-Hydroxymethyl-pyrrolidin-1-yl)-1H-pyrrolo [3,2-b]pyridine-3-carbonitrile], the melting point was in the range of 207 to 209 °C.
In turn, `N#Cc1c(N2CCC[C@H]2CO)[nH]c2cccnc12` [Example 10, (S)-2-(2-Hydroxymethyl-pyrrolidin-1-yl)-1H-pyrrolo [3,2-b]pyridine-3-carbonitrile] showed a melting point of 207 to 209 °C.
Still for that read-out and setting: the result for `N#Cc1c(N2CCCCC2)[nH]c2cccnc12` [Example 18, 2-Piperidin-1-yl-1H-pyrrolo[3,2-b]pyridine-3-carbonitrile] reads 241 to 242 °C.
For the molecule `CCC(C)(C)N=C(NC#N)Nc1cccnc1` [Example P1075], the “effect on stimulated twitch” value with Landrace pig bladders was “completely eliminated the stimulated twitch”.
